Laboratory results as given in patent US8609836B2, “4-aryl-2-anilino-pyrimidines” (Janssen Pharmaceutica NV, priority 2008, dated 2013).

Tests used:
[1] = molecular target: GSK3β (h) (Homo sapiens, UniProt P49841); assay: GSK-3β human kinase inhibition, SPA; type: biochemical; conditions: read-out: GSK3b pIC50 (converted)
Description: (§1) The in vitro inhibition of a panel of kinases was assessed using either the scintillation proximity assay (SPA) as described by Cook, N. D. et al., Advances in Experimental Medicine and Biology (1991), 36; p. 525-528.
(§2) In the SPA technology the activity of the kinase of interest is measured using an appropriate biotinylated substrate that is incubated with the aforementioned kinase protein in the presence of (^33P) radiolabeled ATP. (^33P) Phosphorylation of the substrate is subsequently measured through binding of the phosphorylated substrate to streptavidine coated beads that are based on the scintillant poly(vinyl toluene) (PVT-Beads). The scintillation intensity is detected by imaging on Leadseeker.
(§3) All kinases are pre-diluted to a 10× working concentration prior to addition into the assay. The composition of the dilution buffer for each kinase is detailed below.
In a final reaction volume of 30 μl, GSK3β (h) (1 μg/ml) is incubated with 25 mM Tris pH 7.4, 10 mM MgCl2, 1 mM DTT, 1 μM peptide Biotin-[…]-OH, 1 μM ATP and 2 nM [γ-^33P-ATP] (6.0 μCi/ml). After incubation of 60 minutes at room temperature, the reaction is stopped by addition of 40 μL of stop solution containing 8.7 mM EDTA, BSA 0.17%, 0.17% Triton X-100, 6.25 mg/ml SPA beads (GE-healthcare). The plate is centrifuged and read for Scintillation imaging on Leadseeker.

[2] = molecular target: PLK3 (h) (Homo sapiens, UniProt Q9H4B4); assay: PLK3 human kinase inhibition, SPA; type: biochemical; conditions: read-out: PLK3 pIC50 (converted)
Description: as §1, §2, §3
(§4) In a final reaction volume of 30 μl, PLK3 (h) (30 μg/ml) is incubated with 50 mM Hepes pH 8.0, 2 mM MnCl2, 1 mM DTT, 2 μM of peptide Biotin-Tds linker-[…], 0.1 μM ATP and 2 nM [γ-^33P-ATP] (6.0 μCi/ml). After incubation of 20 minutes at room temperature, the reaction is stopped by addition of 40 μL of stop solution containing 8.7 mM EDTA, BSA 0.17%, 0.17% Triton X-100, 25 mg/ml SPA beads (GE-healthcare). The plate is centrifuged and read for Scintillation imaging on Leadseeker.

[3] = molecular target: AuroraB (h) (Homo sapiens, UniProt Q96GD4); assay: Aurora-B human kinase inhibition, SPA; type: biochemical; conditions: read-out: AuroraB pIC50 (converted)
Description: as §1, §2, §3
In a final reaction volume of 30 μl, AuroraB (h) (0.5 μg/ml) is incubated with 60 mM Hepes pH 7.5, 3 mM MgCl2, 3 mM MnCl2, 3 μM Na3VO4, 0.05 mg/ml PEG, 2 mM DTT, 3 μM Biotin-[…]-OH, 0.5 μM ATP and 2.2 nM [γ-^33P-ATP] (6.8 μCi/ml). After incubation of 60 minutes at room temperature, the reaction is stopped by addition of 40 μL of stop solution containing 8.7 mM EDTA, BSA 0.17%, 0.17% Triton X-100, 5 mg/ml SPA beads (GE-healthcare). The plate is centrifuged and read for Scintillation imaging on Leadseeker.

[4] = molecular target: PLK1 T210D (h) (Homo sapiens, UniProt P53350, T210D); assay: PLK1 human kinase inhibition, SPA; type: biochemical; conditions: read-out: PLK1 pIC50 (converted)
Description: as §1, §2, §3
as §4, with “PLK1 T210D” for “PLK3”, “(0.125 ng/ml)” for “(30 μg/ml)”, “40” for “20”

[5] = molecular target: CDK4/CyclinD1 (h) (Homo sapiens, UniProt P11802); assay: CDK4/CyclinD1 human kinase inhibition, SPA with GST-pRb substrate; type: biochemical; conditions: read-out: CDK4 pIC50 (converted)
Description: as §1, §2, §3
In a final reaction volume of 30 μl, CDK4/CyclinD1 (h) (2.5 μg/ml) is incubated with 50 mM Hepes pH 7.5, 8 mM NaF, 20 mM MgCl2, 1 mM DTT, 40 μg/ml of substrate GST-pRb, 2 nM [γ-^33P-ATP] (6.0 μCi/ml). After incubation of 60 minutes at room temperature, the reaction is stopped by addition of 40 μL of stop solution containing 8.7 mM EDTA, 0.17% Triton X-100, 25 mg/ml Glutathion SPA Beads (GE-healthcare). The plate is centrifuged and read for Scintillation topcount analyzer.

[6] = molecular target: CDK1/CyclinB (h) (Homo sapiens, UniProt P06493); assay: CDK1/CyclinB human kinase inhibition, Invitrogen's FRET assay (Z'lyte); type: biochemical; conditions: read-out: CDK1 pIC50 (converted)
Description: as §1, §3
In a final reaction volume of 10 μl, CDK1/CyclinB (h) (0.2 μg/ml) is incubated with 50 mM Hepes pH 7.5, 10 mM MgCl2, 1 mM EGTA, 0.01% Brij-35, 2 μM Z'lyte Ser/Thr peptide 12 and 10 μM ATP (Invitrogen's FRET assay). After incubation of 60 minutes at room temperature, the reaction is stopped by addition of 5 μL development reagent containing protease mix. After 60 minutes room temperature the development reaction is stopped by adding 5 μl stop solution. The plate is then read in fluorescence plate reader with excitation: 390 nm and dual emission: 460 and 538 nm. Emission ratio is determined to the formula=Emission signal intensity at 460 nm/Emission signal intensity at 538 nm.

[7] = molecular target: PLK4 (h) (Homo sapiens, UniProt O00444); assay: PLK-4 human kinase inhibition, scintillation proximity assay (SPA); type: biochemical; conditions: read-out: PLK4 pIC50 (converted)
Description: as §2, §3
(6.0 μCi/ml). After incubation of 60 minutes at room temperature, the reaction is stopped by addition of 40 μL of stop solution containing 8.7 mM EDTA, BSA 0.17%, 0.17% Triton X-100, 1.7 mg/ml SPA beads (GE-healthcare). The plate is centrifuged and read for Scintillation imaging on Leadseeker.

[8] = molecular target: PLK2 (h) (Homo sapiens, UniProt Q9NYY3); assay: PLK2 human kinase inhibition, SPA; type: biochemical; conditions: read-out: PLK2 pIC50 (converted)
Description: as §1, §2, §3
as §4, with “PLK2” for “PLK3”

[9] = test system: HCT-116; assay: Cellular proliferation assay (Alamar blue), HCT-116; type: cell-based; conditions: Homo sapiens, 10% FCS, 72 hours with compound, Alamar blue 4 h
Description: (§5) […] functional properties of these compounds were tested in cellular proliferation assays on a panel of different cell lines in the presence of 10% FCS serum (37° C. and 5% (v/v) CO2). In a first step these cells were seeded and incubated for 24 hours in the absence of compound. In the second step the cells were incubated for 72 hours with the compounds to be tested for 72 hours. The viable cell number was finally assessed in a standard Alamar blue cell viability assay.
(§6) The viable cell number was assessed by incubation for either 4 h (HCT-116, H1299) 6 h (U87-MG) or 24 h (A2780, MDA-MB-231) with Alamar blue (Resazurin 9 μg/ml, K-Ferrocyanide 90 μM, K-Ferricyanide 90 μM) and the converted fluorescent product was quantified on a fluorescent plate reader (544 nm/590 nm). Effect of the compounds is calculated as of on control cells.

[10] = test system: U87-MG; assay: Cellular proliferation assay (Alamar blue), U87-MG; type: cell-based; conditions: Homo sapiens, U-87 MG; 10% FCS; 72 hours with compound; Alamar blue 6 h; read-out: U87-MG (cellular proliferation assay, Table 4) (converted)
Description: as §5, §6

[11] = test system: A2780; assay: Cellular proliferation assay (Alamar blue), A2780; type: cell-based; conditions: Homo sapiens, 10% FCS, 72 hours with compound, Alamar blue 24 h, read-out: A2780 (cellular proliferation assay, Table 4) (converted)
Description: as §5, §6

Sequence of CDK1/CyclinB (h) (P06493 whole entry): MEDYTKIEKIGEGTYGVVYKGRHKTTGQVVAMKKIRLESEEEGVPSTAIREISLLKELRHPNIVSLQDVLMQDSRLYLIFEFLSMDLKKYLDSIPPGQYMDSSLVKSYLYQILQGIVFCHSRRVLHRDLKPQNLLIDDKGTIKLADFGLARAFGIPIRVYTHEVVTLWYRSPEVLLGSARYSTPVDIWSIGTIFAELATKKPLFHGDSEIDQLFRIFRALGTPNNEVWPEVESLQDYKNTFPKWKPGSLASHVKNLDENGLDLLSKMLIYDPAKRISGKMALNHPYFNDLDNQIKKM
Sequence of CDK1/CyclinB (h) (P14635 whole entry partner): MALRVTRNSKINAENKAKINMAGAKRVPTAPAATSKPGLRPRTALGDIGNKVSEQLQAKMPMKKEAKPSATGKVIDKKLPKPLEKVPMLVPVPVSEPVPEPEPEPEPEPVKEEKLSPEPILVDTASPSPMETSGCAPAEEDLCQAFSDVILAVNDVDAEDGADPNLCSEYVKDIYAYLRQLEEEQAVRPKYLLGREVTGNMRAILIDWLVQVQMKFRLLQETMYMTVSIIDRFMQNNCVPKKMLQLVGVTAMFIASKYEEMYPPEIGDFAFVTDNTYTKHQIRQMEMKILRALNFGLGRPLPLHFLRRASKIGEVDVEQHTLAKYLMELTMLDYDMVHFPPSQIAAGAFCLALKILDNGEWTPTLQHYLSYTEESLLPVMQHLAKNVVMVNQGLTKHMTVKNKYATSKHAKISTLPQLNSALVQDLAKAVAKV
Sequence of PLK3 (h) (Q9H4B4 whole entry): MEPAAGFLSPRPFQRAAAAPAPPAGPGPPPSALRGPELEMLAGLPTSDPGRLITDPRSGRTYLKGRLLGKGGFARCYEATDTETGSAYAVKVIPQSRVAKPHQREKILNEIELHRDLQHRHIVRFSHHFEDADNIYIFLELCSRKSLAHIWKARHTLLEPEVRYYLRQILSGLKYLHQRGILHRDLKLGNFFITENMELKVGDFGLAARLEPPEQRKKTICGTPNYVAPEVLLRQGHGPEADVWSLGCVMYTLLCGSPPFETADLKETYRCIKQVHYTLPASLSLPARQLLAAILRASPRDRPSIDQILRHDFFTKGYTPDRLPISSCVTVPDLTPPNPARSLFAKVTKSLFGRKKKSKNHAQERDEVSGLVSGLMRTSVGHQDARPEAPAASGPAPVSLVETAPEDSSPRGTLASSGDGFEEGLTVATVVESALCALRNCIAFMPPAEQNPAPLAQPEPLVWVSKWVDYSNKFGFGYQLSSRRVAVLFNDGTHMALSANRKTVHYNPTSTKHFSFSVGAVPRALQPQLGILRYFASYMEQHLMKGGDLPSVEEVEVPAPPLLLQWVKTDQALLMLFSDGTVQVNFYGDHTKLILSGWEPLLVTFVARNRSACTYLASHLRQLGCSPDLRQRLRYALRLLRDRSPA
Sequence of PLK1 T210D (h) (P53350 whole entry T210D): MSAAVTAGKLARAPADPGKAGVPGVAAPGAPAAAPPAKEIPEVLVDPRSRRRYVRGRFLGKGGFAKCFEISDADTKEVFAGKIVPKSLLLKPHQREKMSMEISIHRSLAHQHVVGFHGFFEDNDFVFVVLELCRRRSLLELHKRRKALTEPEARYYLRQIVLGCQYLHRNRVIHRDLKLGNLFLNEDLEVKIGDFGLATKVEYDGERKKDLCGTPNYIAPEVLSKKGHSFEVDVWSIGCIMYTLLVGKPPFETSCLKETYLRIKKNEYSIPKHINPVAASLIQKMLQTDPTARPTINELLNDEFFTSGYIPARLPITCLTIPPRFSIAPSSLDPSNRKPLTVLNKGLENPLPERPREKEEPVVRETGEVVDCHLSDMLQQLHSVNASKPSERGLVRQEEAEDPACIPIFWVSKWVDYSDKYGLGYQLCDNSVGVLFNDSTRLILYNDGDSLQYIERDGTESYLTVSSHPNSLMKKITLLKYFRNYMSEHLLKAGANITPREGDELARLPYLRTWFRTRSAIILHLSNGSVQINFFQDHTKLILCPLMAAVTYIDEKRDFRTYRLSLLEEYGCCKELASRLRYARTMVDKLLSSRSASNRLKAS
Sequence of CDK4/CyclinD1 (h) (P11802 whole entry): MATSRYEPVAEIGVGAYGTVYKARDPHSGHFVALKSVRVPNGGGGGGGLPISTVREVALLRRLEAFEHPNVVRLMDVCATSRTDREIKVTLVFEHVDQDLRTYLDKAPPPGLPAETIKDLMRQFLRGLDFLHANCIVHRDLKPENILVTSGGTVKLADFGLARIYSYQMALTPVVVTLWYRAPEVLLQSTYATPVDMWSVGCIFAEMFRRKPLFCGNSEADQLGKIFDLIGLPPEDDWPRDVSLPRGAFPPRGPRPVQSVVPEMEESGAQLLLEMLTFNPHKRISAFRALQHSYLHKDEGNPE
Sequence of CDK4/CyclinD1 (h) (P24385 whole entry partner): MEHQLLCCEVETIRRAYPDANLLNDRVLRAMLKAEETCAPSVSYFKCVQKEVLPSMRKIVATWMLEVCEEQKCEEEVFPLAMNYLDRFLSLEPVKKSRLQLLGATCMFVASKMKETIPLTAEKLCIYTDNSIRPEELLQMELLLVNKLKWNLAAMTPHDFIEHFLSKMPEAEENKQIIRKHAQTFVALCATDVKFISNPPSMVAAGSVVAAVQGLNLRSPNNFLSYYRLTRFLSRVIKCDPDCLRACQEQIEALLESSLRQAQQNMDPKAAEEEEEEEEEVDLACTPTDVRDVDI
Sequence of GSK3β (h) (P49841 whole entry): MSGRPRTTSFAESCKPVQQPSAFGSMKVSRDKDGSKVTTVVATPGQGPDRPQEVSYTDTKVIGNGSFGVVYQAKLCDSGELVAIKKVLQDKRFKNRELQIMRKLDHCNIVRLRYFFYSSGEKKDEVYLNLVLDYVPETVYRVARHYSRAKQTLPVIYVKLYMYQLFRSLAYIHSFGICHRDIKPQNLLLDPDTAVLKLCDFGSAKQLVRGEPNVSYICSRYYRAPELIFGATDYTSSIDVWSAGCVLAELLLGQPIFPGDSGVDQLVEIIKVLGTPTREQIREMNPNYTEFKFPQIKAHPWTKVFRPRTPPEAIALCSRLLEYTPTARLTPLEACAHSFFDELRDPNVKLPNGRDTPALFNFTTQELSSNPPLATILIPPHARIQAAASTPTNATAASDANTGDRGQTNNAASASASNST
Sequence of PLK2 (h) (Q9NYY3 whole entry): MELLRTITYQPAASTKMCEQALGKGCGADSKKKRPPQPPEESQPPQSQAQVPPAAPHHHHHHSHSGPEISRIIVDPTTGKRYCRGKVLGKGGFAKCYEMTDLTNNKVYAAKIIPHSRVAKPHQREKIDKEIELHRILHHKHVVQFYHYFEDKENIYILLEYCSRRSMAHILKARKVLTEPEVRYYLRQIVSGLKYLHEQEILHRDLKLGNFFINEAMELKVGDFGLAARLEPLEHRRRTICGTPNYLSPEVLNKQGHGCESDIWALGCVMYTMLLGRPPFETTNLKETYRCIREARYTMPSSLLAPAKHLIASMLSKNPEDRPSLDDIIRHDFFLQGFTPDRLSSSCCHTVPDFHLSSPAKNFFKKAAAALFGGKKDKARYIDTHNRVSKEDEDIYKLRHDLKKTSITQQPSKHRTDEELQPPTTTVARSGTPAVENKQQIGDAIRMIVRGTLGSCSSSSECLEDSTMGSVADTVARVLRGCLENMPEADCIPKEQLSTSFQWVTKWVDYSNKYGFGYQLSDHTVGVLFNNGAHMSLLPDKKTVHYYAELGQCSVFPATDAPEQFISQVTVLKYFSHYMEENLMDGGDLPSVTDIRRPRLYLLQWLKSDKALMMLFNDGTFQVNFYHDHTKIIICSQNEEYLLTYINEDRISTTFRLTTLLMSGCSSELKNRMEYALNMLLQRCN
Sequence of PLK4 (h) (O00444 whole entry): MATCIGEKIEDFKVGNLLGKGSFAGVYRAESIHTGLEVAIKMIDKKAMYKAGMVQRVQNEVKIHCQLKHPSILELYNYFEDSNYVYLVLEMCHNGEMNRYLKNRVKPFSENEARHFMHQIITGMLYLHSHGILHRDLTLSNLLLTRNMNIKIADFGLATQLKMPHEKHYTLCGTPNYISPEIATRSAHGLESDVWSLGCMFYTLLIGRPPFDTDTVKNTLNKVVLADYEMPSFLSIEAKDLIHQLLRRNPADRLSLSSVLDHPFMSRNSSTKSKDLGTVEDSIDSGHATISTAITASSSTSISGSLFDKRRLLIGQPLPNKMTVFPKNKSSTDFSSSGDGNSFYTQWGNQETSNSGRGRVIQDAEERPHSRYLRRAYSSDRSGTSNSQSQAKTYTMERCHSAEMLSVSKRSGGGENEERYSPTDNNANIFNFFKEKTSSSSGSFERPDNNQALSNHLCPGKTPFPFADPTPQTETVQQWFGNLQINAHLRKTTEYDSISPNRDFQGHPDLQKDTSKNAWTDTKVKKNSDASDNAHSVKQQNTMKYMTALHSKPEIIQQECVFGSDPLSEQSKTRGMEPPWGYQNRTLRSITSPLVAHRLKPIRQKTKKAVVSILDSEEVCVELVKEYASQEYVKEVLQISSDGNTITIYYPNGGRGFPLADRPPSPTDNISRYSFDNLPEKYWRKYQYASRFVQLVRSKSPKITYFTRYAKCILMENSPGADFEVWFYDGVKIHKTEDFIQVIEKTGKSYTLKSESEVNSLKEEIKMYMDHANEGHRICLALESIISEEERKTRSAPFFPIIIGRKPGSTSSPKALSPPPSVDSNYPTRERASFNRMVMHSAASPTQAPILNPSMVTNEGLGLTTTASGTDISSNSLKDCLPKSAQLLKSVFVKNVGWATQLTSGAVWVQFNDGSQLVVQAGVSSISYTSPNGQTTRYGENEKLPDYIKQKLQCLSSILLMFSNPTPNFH
Sequence of AuroraB (h) (Q96GD4 whole entry): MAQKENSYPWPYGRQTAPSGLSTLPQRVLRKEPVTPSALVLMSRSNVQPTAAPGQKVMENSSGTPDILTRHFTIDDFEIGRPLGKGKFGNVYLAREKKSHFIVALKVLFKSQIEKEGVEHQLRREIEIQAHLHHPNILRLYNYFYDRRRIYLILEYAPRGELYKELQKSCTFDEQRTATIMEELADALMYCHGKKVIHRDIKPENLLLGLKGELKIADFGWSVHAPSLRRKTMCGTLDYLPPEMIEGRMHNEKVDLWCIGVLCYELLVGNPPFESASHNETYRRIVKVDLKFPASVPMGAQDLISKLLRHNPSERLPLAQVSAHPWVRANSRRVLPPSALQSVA

Row | SMILES | IC50 [1] [µM] | IC50 [2] [µM] | IC50 [3] [µM] | IC50 [4] [µM] | IC50 [5] [µM] | IC50 [6] [µM] | IC50 [7] [µM] | IC50 [8] [µM] | IC50 [9] [µM] | IC50 [10] [µM] | IC50 [11] [µM]
1 | COc1ccc2cc1CNCCNC(=O)C1CCN(CC1)Cc1cc(ccc1N1CCOCC1)Nc1nccc-2n1 [Compound 64] | > 10 | > 10 | 7.41 | > 10 | > 10 | > 10 | 1.2 | > 10 |  |  | 
2 | CN1CCCNC(=O)CN2CCN(CC2)Cc2cc(Br)cc(c2)Nc2nccc(n2)-c2ccc(cc2)C1 [Compound 137] | 2.95 | > 10 | > 10 | > 10 | > 10 | > 10 | 2.09 | > 10 | > 10 | 7.94 | 3.89
3 | CN1CCCNC(=O)CN2CCN(CC2)Cc2cccc(c2)Nc2nccc(n2)-c2ccc(cc2)C1 [Compound 143] | > 3.02 | > 10 | > 10 | > 10 | > 10 | > 10 | 3.55 | > 10 | > 10 | > 10 | > 10
4 | COc1ccc2cc1CN(C)CCNC(=O)C1CCN(CC1)Cc1cc(Br)cc(c1)Nc1nccc-2n1 [Compound 79] | 0.832 | > 10 | > 10 | > 10 | > 10 | > 10 | 5.25 | > 10 | > 10 | 7.59 | 4.79
5 | CN1CCCNC(=O)C2CCN(CC2)Cc2cc(Br)cc(c2)Nc2nccc(n2)-c2ccc(cc2)C1 [Compound 63] | 1.91 | > 10 | > 10 | > 10 | > 10 | > 10 | 1.12 | > 10 | > 10 | 5.89 | 2.69
6 | COc1ccc2cc1CN(C)CCNC(=O)[C@@H]1CCCN1Cc1cc(Br)cc(c1)Nc1nccc-2n1 [Compound 174] | 4.79 | > 10 | 8.71 | > 10 | > 10 | > 10 | ~6.92 | > 10 | > 10 | > 10 | 1.66
7 | CN1CCCNC(=O)[C@@H]2CCCN2Cc2cc(Br)cc(c2)Nc2nccc(n2)-c2ccc(cc2)C1 [Compound 159] | 6.31 | > 10 | 5.75 | > 10 | > 10 | > 10 | 1.48 | > 10 | > 10 | 6.92 | 2.69
8 | COc1ccc2cc1CN(C)CCCNC(=O)[C@@H]1CCCN1Cc1cc(Br)cc(c1)Nc1nccc-2n1 [Compound 170] | > 10 | > 10 | 5.25 | > 10 | > 10 | > 10 | 3.89 | > 10 | > 10 | 5.25 | 4.17
9 | O=C1NCc2cccc(c2)-c2ccnc(n2)Nc2ccc(cc2)CN[C@H]1CO [Compound 191] | 7.94 | > 10 | > 10 | > 10 | 7.41 | > 10 | > 10 | > 10 |  |  | 
10 | COc1ccc2cc1CN(C)CCNC(=O)CN1CCN(CC1)Cc1cc(Br)cc(c1)Nc1nccc-2n1 [Compound 50] | 5.13 | > 10 | > 10 | > 10 | > 10 | > 10 | 9.33 | > 10 | > 10 | > 10 | > 10
11 | COc1ccc2cc1CN1CCC[C@H]1C(=O)NCCCc1ccc(cn1)-c1ccnc(n1)N2 [Compound 2] | > 10 | > 10 | > 10 | > 10 | > 10 | > 10 | > 10 | > 10 | > 10 | > 10 | 
